In US12428391B2, “Dimethylsulfoximine derivative” (CISEN PHARMACEUTICAL CO., LTD, priority 2020, dated 2025):

Tests used:
NLRP3 = biological target: T1, NLRP3 (Homo sapiens, UniProt Q96P20); assay: IC50 experiment for the detection of NLRP3 antagonist using THP-1 cells (IL-1β secretion, PMA/LPS/ATP); format: cell-based
T1 construct: endogenous in cells
Source text: The chemical names and structural formulas of the compounds of the present disclosure for experimental use are shown in the preparation embodiments for each compound. • 1. Experimental principle: In this experiment, the human monocytic cell line THP1 was used to study the inhibitory activity (IC50) of NLRP3 antagonists on the secretion of IL-1β. The monocytic cell line THP1 was differentiated into mature macrophages using PMA (phorbol 12-myristate 13-acetate), and then the cells were stimulated using LPS (lipopolysaccharide), an agonist of Toll-like receptor TLR4, to activate the transcriptional activity of inflammasome NLRP3 and the expression of IL-1β precursor pro-IL-1β. At this time, the NLRP3 antagonist was added, and then ATP was added to further mature and activate NLRP3, and activate downstream caspase-1. Pro-IL-1β could be enzyme-cleaved by the activated caspase-1 to mature IL-1β that could be secreted.

[1] = test system: MSU-induced Air Pouch acute gout model; assay: MSU-induced Air Pouch acute gout model, IL-6 and IL-1β in APLV; format: in vivo, C57BL/6 mice; settings: for level of IL-1β in APLV after treatment / level of IL-6 in APLV after treatment: MCC950 50 mg/kg po, 7a 50, 15, 5 mg/kg po, dexamethasone 10 mg/kg ip, MSU 3 mg
Method: Experimental Embodiment 3: Evaluation of the Therapeutic Effect of the Compound on the MSU-Induced Air Pouch Acute Gout Model in C57BL/6 Mice
Air Pouch of mouse is a cystic space similar to the human synovial membrane, and the injection of monosodium urate crystals (MSU) into the air pouch will cause an acute inflammatory response similar to human gout. The inflammatory cytokines IL-6 and IL-1β in the Air Pouch Lavage Fluid flushing fluid (APLV) were analyzed, and MCC950 was used as a control compound, and the efficacy of the compound of the present disclosure on the MSU-induced air pouch gout model in male C57BL/6 mice was tested.
On the seventh day, the drug was administered first, and the MSU crystal solution was injected into the air pouch after 1 hour, and the Air Pouch Lavage Fluid (APLV) was collected after 7 hours and analyzed.
1 g of uric acid was dissolved in 0.2 L of boiling water containing 6 mL of 1 N sodium hydroxide; after the pH was adjusted to 7.4, the solution was gradually cooled at room temperature and then left overnight at 4° C. MSU crystals were recovered by centrifugation and evaporated to dryness, dispensed into individual vials (3 mg), and sterilized by autoclaving.
Healthy C57BL/6 mice were numbered and grouped in the experiment, and 5 mL of sterile air was subcutaneously injected into the back of the mice on the same day of grouping (Day 1) and on the fourth day (Day 4) to generate an air pouch. On the seventh day (Day 7), each group of mice was given vehicle or test sample, and after 1 hour the suspension of MSU crystals (saline, 3 mg/mL) was injected into the air pouch. Air Pouch Lavage Fluid (APLV) would be collected after 6 hours, and ELISA kits would be used to test the levels of IL-6 and IL-1β in APLV. Results were expressed as average value±SEM. Statistical analysis was performed by a method of analysis of variance (ANOVA), followed by Dunnett test, and differences were considered significant when p<0.05.

[2] = Pharmacokinetic evaluation of compounds in mice; format: in vivo; settings: C57BL/6J mice
Method: Experimental Objective: To Test the Pharmacokinetics of Compounds in Mice
Experimental Materials: C57BL/6J Mice (Male, 6-8 Weeks Old)
Experimental operation: The clear solution obtained after the test compound was dissolved was administered to […] C57BL/6J mice (overnight fasting, 6-8 weeks old) via tail intravenous injection and intragastric administration (vehicle: 10% DMSO/10% solutol/80% water). After administration of test compound or control compound, blood was collected from the mandibular vein and centrifuged to obtain plasma at 0.0833, 0.25, 0.5, 1, 2, 4, 8 and 24 h for the intravenous injection group (IV) and at 0.25, 0.5, 1, 2, 4, 6, 8 and 24 h for the intragastric administration group (PO). The plasma concentration was determined by LC-MS/MS, and relevant pharmacokinetic parameters were calculated by the non-compartmental model linear logarithmic trapezoidal method using pharmacokinetic software WinNonlin™ Version 6.3. Meaning of each parameter: T1/2: half-life; Cmax: peak concentration; AUC0-inf: area under the plasma concentration-time curve from time 0 extrapolated to infinite time; F: bioavailability, Vd: apparent volume of distribution, Cl: clearance rate, Tmax: time to peak.

[3] = test system: cryopyrin-associated auto-inflammatory syndrome (cAPS) model; settings: mice; cited from earlier work
NLRP3 inflammasome = NLRP3 inflammasome (Homo sapiens, UniProt Q96P20); settings: cited from earlier work
type II diabete model = settings: mice; cited from earlier work
[4] = test system: experimental autoimmune encephalomyelitis (EAE); settings: mice; cited from earlier work
[5] = at the dose of 15 mg/kg and 50 mg/kg po

T1 sequence (Q96P20 whole entry): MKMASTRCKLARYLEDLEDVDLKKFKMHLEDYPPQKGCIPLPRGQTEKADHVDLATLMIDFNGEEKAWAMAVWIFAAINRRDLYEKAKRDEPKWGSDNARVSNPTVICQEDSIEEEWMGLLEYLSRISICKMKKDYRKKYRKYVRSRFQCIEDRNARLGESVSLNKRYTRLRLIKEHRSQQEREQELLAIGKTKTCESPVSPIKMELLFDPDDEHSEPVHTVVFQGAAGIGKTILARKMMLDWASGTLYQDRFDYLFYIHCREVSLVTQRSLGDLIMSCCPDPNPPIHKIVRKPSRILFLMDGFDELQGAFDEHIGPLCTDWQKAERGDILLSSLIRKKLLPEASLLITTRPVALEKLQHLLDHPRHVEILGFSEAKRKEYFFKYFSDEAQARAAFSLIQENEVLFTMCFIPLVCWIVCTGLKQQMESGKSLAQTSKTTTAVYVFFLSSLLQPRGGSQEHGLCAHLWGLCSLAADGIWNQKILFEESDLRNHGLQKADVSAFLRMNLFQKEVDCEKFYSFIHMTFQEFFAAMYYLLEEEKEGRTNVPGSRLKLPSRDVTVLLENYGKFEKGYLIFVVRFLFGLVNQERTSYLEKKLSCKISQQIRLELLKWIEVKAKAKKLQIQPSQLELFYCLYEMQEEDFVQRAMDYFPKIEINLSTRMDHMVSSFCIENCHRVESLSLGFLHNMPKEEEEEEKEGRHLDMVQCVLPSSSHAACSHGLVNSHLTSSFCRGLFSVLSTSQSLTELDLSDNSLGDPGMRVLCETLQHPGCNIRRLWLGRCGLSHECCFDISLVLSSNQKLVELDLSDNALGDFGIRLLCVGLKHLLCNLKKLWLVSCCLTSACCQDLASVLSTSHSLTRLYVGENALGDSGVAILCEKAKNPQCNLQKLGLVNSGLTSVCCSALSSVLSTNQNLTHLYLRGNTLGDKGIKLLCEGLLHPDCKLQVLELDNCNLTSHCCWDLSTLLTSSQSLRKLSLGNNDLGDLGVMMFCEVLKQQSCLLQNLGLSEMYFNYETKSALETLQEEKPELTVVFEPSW
Sequence of NLRP3 inflammasome (Q96P20 whole entry): as above

Q: With CS(C)(=O)=Nc1ccc(S(=N)(=O)NC(=O)Nc2c3c(cc4c2CCC4)CCC3)s1 (single isomer, unassigned) [Compound 4a] as the compound, how does the IC50 (NLRP3) read?
A: The IC50 was 33.9 nM.

Q: Which IC50 (NLRP3) does the source give for COc1cc(-c2ccc3c(c2NC(=O)NS(=N)(=O)c2ccc(N=S(C)(C)=O)s2)CCC3)ccn1 (single isomer, unassigned) [Compound 5a] here?
A: Its IC50 is 7.4 nM.

Q: For CS(C)(=O)=Nc1cnc(S(=N)(=O)NC(=O)Nc2c3c(cc4c2CCC4)CCC3)s1 (single isomer, unassigned) [Compound 7a], which “level of IL-1β in APLV after treatment” value [1] is on record?
A: The value was “decreased rapidly”.

Q: What about the “level of IL-6 in APLV after treatment” value [1] of the same compound?
A: The value was “decreased rapidly”.

Q: What about the “reducing IL-6 in APLV compared with dexamethasone (10 mg/kg dose)” value ([1]; at high, medium and low doses (50, 15, 5 mg/kg po)) of the same compound?
A: The value was “better than dexamethasone”.

Q: And the “reducing IL-1β in APLV compared with MCC950 (50 mg/kg dose)” value [1, 5]?
A: Its value is “significantly better than that of MCC950”.

Q: What about the “reducing IL-1β in APLV compared with dexamethasone (10 mg/kg)” value [1, 5] of the same compound?
A: The value was “reaching the same effect as dexamethasone”.

Q: And the “reducing IL-6 in APLV compared with MCC950 (50 mg/kg dose)” value [1, 5]?
A: Its value is “better than MCC950”.

Q: What about the “effect on reducing IL-1β in APLV” value ([1]; po, MSU-induced air pouch) of the same compound?
A: Its value is “significant effect”.

Q: And the F ([2]; PO 20 mg/kg vs IV 3 mg/kg)?
A: Its F is 67.6%.

Q: And the AUC(0-inf) ([2]; mouse, plasma, IV 3 mg/kg)?
A: The AUC(0-inf) was 65.7 µM·h.

Q: And the Vd ([2]; mouse, plasma, IV 3 mg/kg)?
A: Its Vd is 0.25 L/kg.

Q: What about the clearance ([2]; mouse, plasma, IV 3 mg/kg) of the same compound?
A: The clearance was 1.68 mL/min/kg.

Q: And the half-life ([2]; mouse, plasma, IV 3 mg/kg)?
A: The half-life was 2.1 h.

Q: What about the AUC(0-inf) ([2]; mouse, plasma, PO 20 mg/kg) of the same compound?
A: The AUC(0-inf) was 296 µM·h.

Q: And the Cmax ([2]; mouse, plasma, PO 20 mg/kg)?
A: The Cmax was 102 µM.

Q: What about the Tmax ([2]; mouse, plasma, PO 20 mg/kg) of the same compound?
A: The Tmax was 0.5 h.

Q: What about the IC50 (NLRP3) of the same compound?
A: The IC50 was 9.8 nM.

Q: For O=C(O)c1ccc(/C=C2\SC(=O)N(Cc3cccc(C(F)(F)F)c3)C2=O)cc1 [CY-09], which “therapeutic effect on cAPS model” value [3] is on record?
A: Its value is “significant therapeutic effects”.

Q: And the “assembly and activation of NLRP3 inflammasome” value (NLRP3 inflammasome)?
A: Its value is “specifically blocks”.

Q: What about the “therapeutic effect on type II diabete model” value (type II diabete model) of the same compound?
A: The value was “significant therapeutic effects”.

Q: For COc1cc(-c2cccc(C(C)C)c2NC(=O)NS(=O)(=O)c2ccc(N=S(C)(C)=O)s2)ccn1 [Compound 2], which IC50 (NLRP3) is on record?
A: The IC50 was 40 nM.

Q: Which IC50 (NLRP3) does the source give for COc1cc(-c2ccc3c(c2NC(=O)NS(=O)(=O)c2ccc(N=S(C)(C)=O)s2)CCC3)ccn1 [Compound 3] here?
A: The IC50 was 10 nM.

Q: With CS(C)(=O)=Nc1ccc(S(=N)(=O)NC(=O)Nc2c(-c3ccnc(C#N)c3)ccc3c2CCC3)s1 (stereo not drawn) [Compound 8] as the compound, how does the IC50 (NLRP3) read?
A: Its IC50 is 27.8 nM.

Q: With CC(C)(O)c1coc(S(=O)(=O)NC(=O)Nc2c3c(cc4c2CCC4)CCC3)c1 [MCC950, reference compound] as the compound, how does the “level of IL-1β in APLV after treatment” value [1] read?
A: The value was “decreased rapidly”.

Q: And the “level of IL-6 in APLV after treatment” value [1]?
A: The value was “decreased rapidly”.

Q: What about the “severity of experimental autoimmune encephalomyelitis (EAE)” value [4] of the same compound?
A: The value was “reduce the severity”.
